Results published in patent publication US20250123280A1, “LABEL-FREE DETECTION OF PROTEASE ACTIVITY” (OREGON HEALTH & SCIENCE UNIVERSITY, priority 2021, published 2025).
Peptide text beside a SMILES is read from it. * marks the point of attachment. Fmoc = O=C(OCC1c2ccccc2-c2ccccc21)*

Experiments:
[1] = Solubility in aqueous solutions; format: physicochemical
legumain [2] = biological target: T1, legumain (Mus musculus, UniProt O89017); assay: Legumain activity detection in human plasma (peptide 1/ThT); format: biochemical
T1 construct: purchased Novus Biologicals
T1 sequence (O89017 18-325 limits assumed): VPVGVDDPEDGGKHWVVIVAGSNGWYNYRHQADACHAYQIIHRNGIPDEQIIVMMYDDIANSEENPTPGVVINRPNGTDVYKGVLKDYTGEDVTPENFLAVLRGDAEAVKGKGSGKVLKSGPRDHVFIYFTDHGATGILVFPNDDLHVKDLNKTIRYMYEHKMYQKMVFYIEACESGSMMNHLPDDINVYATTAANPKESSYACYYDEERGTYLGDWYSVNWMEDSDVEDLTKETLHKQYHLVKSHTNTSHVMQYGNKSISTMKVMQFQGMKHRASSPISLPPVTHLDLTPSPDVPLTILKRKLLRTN
Protocol: In the peptide concentration experiment, appropriate amounts of peptide 1 stock solution (10 mg/mL) were diluted in PBS and mixed with the MES buffer containing legumain, as described above, to give the final peptide concentrations between 0.05 and 1 mg/mL in the assay. In kinetic studies, ThT solution was mixed with the peptide immediately before the addition of activated legumain, and the plate was incubated in a Spark 20M microplate reader (Tecan) at 37° C. for 3 hours, and ThT fluorescence was recorded every 4 minutes. For the inhibitor experiment, the legumain inhibitor, RR-11a, was first dissolved in DMSO (1 mM), and appropriate amounts of inhibitor were incubated with legumain for about 1.0 hour at room temperature in 96 well plates. Finally, the legumain solutions incubated with different amounts of inhibitor were mixed with the peptide 1 solution, and the assay was performed as described above. […]
To assess the possibility of using the developed self-assembling polypeptides and methods in complex biological environments, legumain detection experiments in human plasma were performed. In initial studies, a background fluorescence signal in plasma (20%) was detected due to the nonspecific interactions between ThT and plasma proteins (see FIG. 24A) (Rovnyagina, N. R. et al., Binding of Thioflavin T by Albumins: An Underestimated Role of Protein Oligomeric Heterogeneity. Int. J. Biol. Macromol. 2018, 108, 284-290). While this background signal was relatively strong, the incubation of peptide 1 in legumain (1000 ng/mL) spiked plasma still produced a detectable fluorescence enhancement (about 2.5 fold) after the addition of ThT (90 μM). […]
Having a better understanding of the assay's background fluorescence, further studies were performed to optimize the assay performance in plasma. To reduce the background fluorescence, the assay was run in plasma using lower ThT concentrations (see FIGS. 26A and 26B). […] In the optimized assay conditions, a fluorescence enhancement of about 20 fold was obtained in 10% plasma at the legumain concentration of 1000 ng/mL as shown in FIG. 12A. […]

legumain [3] = biological target: T1, legumain; assay: LC-MS analysis of hydrolysis of peptide 1 by legumain; format: biochemical; details: peptide about 0.5 mg/mL, legumain about 1000 ng/mL, 37° C., about 2 hours
Protocol: Fluorescence spectroscopy. For fluorescence measurements, peptide 2 was dissolved in DMSO to give a peptide concentration of 10 mg/mL, and it was 5× diluted in DMSO or the assay buffer and fluorescence spectra of the Fmoc groups were recorded using an FP-8500 spectrofluorometer (JASCO, Inc). Liquid chromatography mass spectrometry (LC-MS) measurements. LC-MS measurements were carried using an Acquity UPLC System (Waters) equipped with a SQ Detector 2 (Waters) and a C18 column (Waters). For LC-MS measurement, peptide 1 was first dissolved in ultrapure water containing 25% DMSO and diluted in PBS and MES mixture with or without legumain as described above. Final peptide concentration was about 0.5 mg/mL and legumain concentrations were about 0 ng/mL and about 1000 ng/mL. Samples were incubated at 37° C. for about 2 hours, diluted in HPLC grade water and acetonitrile mixture (1:1) containing 1% formic acid, and loaded to the column.

## C[C@H](NC(=O)[C@H](C)NC(=O)[C@H](CCC(=O)O)NC(=O)[C@H](Cc1ccccc1)NC(=O)[C@H](CCCCN)NC(=O)[C@H](Cc1ccccc1)NC(=O)OCC1c2ccccc2-c2ccccc21)C(=O)N[C@@H](CC(N)=O)C(=O)NCC(=O)N[C@@H](CCC(=O)O)C(=O)N[C@@H](CCC(=O)O)C(=O)NCC(=O)N[C@@H](CO)C(=O)NCC(=O)N[C@@H](CCC(=O)O)C(=O)N[C@@H](CCC(=O)O)C(=O)O [peptide 1] (Fmoc-FKFEAANGEEGSGEE-OH; C-terminus assumed)
[1]
  solubility in aqueous solutions: good solubility
Legumain [2]; 10% plasma, ThT 25 μM, legumain 1000 ng/mL
  fluorescence enhancement: about 20 fold
Legumain [2]; 20% plasma spiked with legumain 1000 ng/mL, ThT 90 μM
  fluorescence enhancement: about 2.5 fold
Legumain [2]; albumin depleted 20% plasma
  ON/OFF ratio of the assay: about 10
Legumain [3]
  peptide cleaved by legumain (LC-MS): ~30%
